Measurements reported in paper PMC12024912, “Druggability Studies of Benzene Sulfonamide Substituted Diarylamide (E3) as a Novel Diuretic” (Biomedicines, 2025).

Columns and labels:
[1] = Liver microsome metabolic stability, rat; assay type: in vitro ADME; settings: 60 min incubation, 37 °C
Protocol: (§1) Plasma from mice, rats, rabbits, and humans was obtained from blood after centrifugation at 3000 r/min for 10 min. Simulated gastric fluid (SGF, pH = 1, containing pepsin) and simulated intestinal fluid (SIF, pH = 6.8, containing trypsin) were configured previously in the experiments. SD rats and mice were collected, and after removing the mucus layer from the small intestine and colon, 20 times the volume of liquid bacterial culture medium was added. An intestinal microbiota suspension was obtained after anaerobic cultivation on a shaking table at 37 °C for 12 h. In the aforementioned systems, E3 was added at a final concentration of 1 μmol/L at 37 °C for different incubation times (0, 10, 20, 30, 60, 120, and 240 min). In liver metabolic stability assays, E3 was incubated with liver microsomes or liver homogenate from mice or rats for 60 min at 37 °C. The stop solution, 5 ng/mL tolbutamide (internal standard, IS) in acetonitrile, was added to stop the metabolic process. Post-centrifugation (18,000× g, 10 min, 4 °C), supernatants were subjected to liquid chromatography–tandem mass spectrometry (LC–MS/MS). Analyte-to-IS peak area ratios quantified residual percentages via Equation (2):Remaining% = (E3peak area/ISpeak area at different time)/(E3peak area/ISpeak area at 0 min) × 100%.(2)

Blood stability, human = assay type: in vitro ADME; settings: plasma, n=3
Protocol: as §1

mice = assay: Diuretic effect of single intragastric administration in mice (metabolic cages); assay type: in vivo, mouse
Protocol: In a single-dose administration experiment, male wild-type (WT) mice, UT-B^-/- mice, UT-A1^-/- mice, or SD rats were adapted in metabolic cages for 3 d. Food and water were provided ad libitum throughout the experiment. Prior to administration, the bladder of each animal was emptied through gentle abdominal massage, and urine was collected from the metabolic cages every 2 h. Compound E3, suspended in 0.5% CMC-Na at an appropriate concentration, was administered intragastric gavage to the mice or rats (0.16, 0.8, 4, or 20 mg/kg). Vehicle control comprised 0.5% (w/v) CMC-Na. Urinary parameters were determined through the following: volume: Gravimetric analysis (1 g/mL density assumption); osmolality: freezing-point osmometry (Micro-osmometer, […] Associates, Norwood, MA, USA); and urea: diacetyl oxime colorimetry (QuantiChrom® kit, Elabscience, Wuhan, China). In long-term (7 d) diuretic activity experiments, male WT mice, UT-B^-/- mice, UT-A1^-/- mice, and SD rats were acclimatized in metabolic cages (Ugo Basile, Comerio, VA, Italy) for 3 d. Food and water were provided ad libitum throughout the experiment. E3 was suspended in 0.5% CMC-Na and administered at a dose of 4 or 20 mg/kg by intragastric gavage. Urine was collected by metabolic cages every 24 h. Body weight was measured daily. At 4 h after the final administration, a blood sample was obtained by heart puncture. Inner medulla and outer medulla tissue homogenates were prepared, and the supernatant after centrifugation was analyzed for solute concentration and osmolality. Urinary osmolality and urea concentration were measured as above. Serum Na^+, K^+, and Cl^- were measured in a clinical chemistry laboratory, while serum creatinine, ALT, and AST were measured through specific reagent kits (NJJC Bio, Nanjing, China).

UT-B = target: T1, UT-B (Homo sapiens, UniProt Q13336); assay: Erythrocyte lysis assay for UT-B inhibition, human erythrocytes; assay type: cell-based
T1 construct: endogenous in cells; host or cells: erythrocytes from healthy adult male volunteers
T1 sequence (Q13336 1-389): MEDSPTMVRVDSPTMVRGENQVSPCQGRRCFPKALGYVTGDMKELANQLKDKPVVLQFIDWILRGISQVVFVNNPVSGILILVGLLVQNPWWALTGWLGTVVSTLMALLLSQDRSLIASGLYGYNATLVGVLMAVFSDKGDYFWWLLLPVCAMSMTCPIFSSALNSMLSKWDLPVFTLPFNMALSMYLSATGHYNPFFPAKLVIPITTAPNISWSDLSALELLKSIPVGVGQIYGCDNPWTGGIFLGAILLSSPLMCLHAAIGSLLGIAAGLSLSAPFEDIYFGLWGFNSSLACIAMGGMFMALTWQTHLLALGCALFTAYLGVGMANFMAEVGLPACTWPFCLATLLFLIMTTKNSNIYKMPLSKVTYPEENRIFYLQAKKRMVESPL
Protocol: The erythrocyte lysis assay was modified from a method described previously. Erythrocytes obtained from veins were diluted to a hematocrit value of 2% in hyperosmolar PBS containing 1.25 mol/L urea and 5 mmol/L glucose and incubated at r.t. for 2 h. Then, 99 μL erythrocyte suspension from a reservoir was added to each well of a 96-well round-bottom microplate, then 1 μL of the testing compound (500, 125, 31.25, 7.81, 1.95, 0.488, 0.122, 0.031, 0.0076 μmol/L dissolved in DMSO) was added to erythrocyte suspension and shook it up with microoscillator for 1 min. Following 5 min incubation, 20 μL erythrocyte suspension was transferred into 96-well black microplates preloaded with 180 μL isotonic PBS (10 mM, urea-free). Erythrocyte lysis was monitored at 710 nm optical density (OD710) for 6 min, with lysis rates calculated using control values from the same plate as Equation (1):Lysis (%) = 100 × (Aneg − Atest)/(Aneg − Apos)(1) where Atest is the absorbance value from the test well, Aneg is from a negative no-lysis control well, and Apos is from a positive full-lysis control.

[2] = UT-A1−/− mice, 20 mg/kg single dose
[3] = UT-B−/− mice, 20 mg/kg single dose
[4] = mice, single intragastric gavage

CC(=O)c1ccc(C(=O)Nc2cccc(NS(=O)(=O)c3ccccc3)c2)o1 [Compound E3, 5-acetyl-N-(3-(phenylsulfonamido)phenyl)furan-2-carboxamide]
remaining amount, rat liver microsomes [1]: 61.1%
remaining at 1 μmol/L (Blood stability, human): 54.1%
excretion of non-urea solutes (mice; [2]): not significantly changed
urea concentration (urine) (mice; [2]): no significant change
urinary osmolality (mice; [2]): no significant change
urine output (mice; [2]): no significant change
excretion of non-urea solutes (mice; [3]): not significantly changed
urinary osmolality (mice; [3]): decreased correspondingly
urinary urea (mice; [3]): decreased correspondingly
urine output (mice; UT-B−/− mice, 20 mg/kg single dose, 2 h post administration): markedly increased
urinary osmolality (mice; [4]): decreased
urinary urea (mice; [4]): decreased
urine output (mice; mice, single intragastric gavage 0.16-20 mg/kg, vs vehicle): significantly increased
excretion of non-urea solutes (mice; mice, single intragastric gavage, vs control): not significantly different
maximum inhibition rate, human cells (UT-B; erythrocyte lysis assay): approximately 100%
IC50 (UT-B; red blood cell lysis assay, read-out: IC50 for UT-B-promoted urea transport, humans): 25 nM
